# Columns and labels:
# Type in all cases: in vivo
# [1] = system: barnyardgrass (Echinochloa crus-galli, ECHCG); test: Pre-emerge test, greenhouse herbicide activity screening; details: rated 14 days after application, 0 = no damage, 100 = complete death
# How it was run: (§1)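 Herbicidal damage is scored 0 (none) to 100 (complete plant death) two weeks after a simulated field spray. Rates span 15–1000 g ai/ha, delivered in acetone at 187 l/ha. For post-emergence treatments, plants have 2–3 leaves and the spray carries 0.25% v/v non-ionic surfactant.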
# [2] = system: sicklepod (Cassia obtusifolia, CASOB); test: as above; details: rated 14 days after application, 0 = no damage, 100 = complete death
# How it was run: as §1
# [3] = system: ivyleaf morningglory (Ipomoea hederacea, IPOHE); test: as above; details: rated 14 days after application, 0 = no damage, 100 = complete death
# How it was run: as §1
# [4] = system: common ragweed (Ambrosia artemisizfolia L., AMBEL); test: as above; details: rated 14 days after application, 0 = no damage, 100 = complete death
# How it was run: as §1
# [5] = system: johnsongrass (Sorghum halepense, SORHA); test: as above; details: rated 14 days after application, 0 = no damage, 100 = complete death
# How it was run: as §1
# [6] = system: velvetleaf (Abutilon theophrasti, ABUTH); test: as above; details: rated 14 days after application, 0 = no damage, 100 = complete death
# How it was run: as §1
# [7] = system: large crabgrass (Digitaria sanguinalis, DIGSA); test: as above; details: rated 14 days after application, 0 = no damage, 100 = complete death
# How it was run: as §1
# [8] = system: green foxtail (Setaria viridis, SETVI); test: as above; details: rated 14 days after application, 0 = no damage, 100 = complete death
# How it was run: as §1
# [9] = system: lambsquarters (Chenopodium album, CHEAL); test: as above; details: rated 14 days after application, 0 = no damage, 100 = complete death
# How it was run: as §1
# [10] = system: upland rice (Oryza sp., var. Tebonnet, RICE); test: Pre-emerge test, crop safety; details: rated 14 days after application, 0 = no damage, 100 = complete death
# How it was run: (§2)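 Sandy loam pots; pre-emerge: sown 1 d pre-spray, surface-watered after, then bottom-watered. Post-emerge: sown 8–21 d before, 2–3 leaf stage, + 0.25% v/v NIS, bottom-watered. Acetone, 187 l/ha track spray, 15–1000 g ai/ha. 0–100 injury score, day 14.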
# [11] = system: field corn (Zea mays L., var. Dekalb 535, CORN); test: Pre-emerge test, crop safety; details: rated 14 days after application, 0 = no damage, 100 = complete death
# How it was run: as §2
# [12] = system: redroot pigweed (Amaranthus retroflexus, AMARE); test: Pre-emerge test, greenhouse herbicide activity screening; details: rated 14 days after application, 0 = no damage, 100 = complete death
# How it was run: as §2
# [13] = system: barnyardgrass (Echinochloa crus-galli, ECHCG); test: Post-emerge test, greenhouse herbicide activity screening; details: post-emerge, 14 days after application, rating scale 0-100
# How it was run: (§3)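 Each test used a mechanized track sprayer delivering 187 l/ha of acetone solution at 15–1000 g ai/ha. Post-emerge foliage at 2–3 leaves was treated with added 0.25% v/v non-ionic surfactant and bottom-watered only. Injury was assessed on day 14, where 100 means total kill.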
# [14] = system: sicklepod (Cassia obtusifolia, CASOB); test: as above; details: post-emerge, 14 days after application, rating scale 0-100
# How it was run: as §3
# [15] = system: ivyleaf morningglory (Ipomoea hederacea, IPOHE); test: as above; details: post-emerge, 14 days after application, rating scale 0-100
# How it was run: as §3
# [16] = system: redroot pigweed (Amaranthus retroflexus, AMARE); test: as above; details: post-emerge, 14 days after application, rating scale 0-100
# How it was run: as §3
# [17] = system: common ragweed (Ambrosia artemisizfolia L., AMBEL); test: as above; details: post-emerge, 14 days after application, rating scale 0-100
# How it was run: as §3
# [18] = system: johnsongrass (Sorghum halepense, SORHA); test: as above; details: post-emerge, 14 days after application, rating scale 0-100
# How it was run: as §3
# [19] = system: velvetleaf (Abutilon theophrasti, ABUTH); test: as above; details: post-emerge, 14 days after application, rating scale 0-100
# How it was run: as §3
# [20] = system: large crabgrass (Digitaria sanguinalis, DIGSA); test: as above; details: post-emerge, 14 days after application, rating scale 0-100
# How it was run: as §3
# [21] = system: green foxtail (Setaria viridis, SETVI); test: as above; details: post-emerge, 14 days after application, rating scale 0-100
# How it was run: as §3
# [22] = system: lambsquarters (Chenopodium album, CHEAL); test: as above; details: post-emerge, 14 days after application, rating scale 0-100
# How it was run: as §3
# [23] = system: upland rice (Oryza sp., var. Tebonnet, RICE); test: Post-emerge test, crop safety; details: post-emerge, 14 days after application, rating scale 0-100
# How it was run: as §1
# [24] = system: field corn (Zea mays L., var. Dekalb 535, CORN); test: Post-emerge test, crop safety; details: post-emerge, 14 days after application, rating scale 0-100
# How it was run: as §1
smiles,measurement,setting,value
COc1c(Cl)cc(F)c(-n2c(=O)cc(C(F)(F)F)n(C)c2=O)c1NC(=O)c1cccc(Cl)c1 [2-54],"Pre-emerge Herbicidal Activity, phytotoxicity rating (0-100), ECHCG",[1]; 63 g ai/ha,90
same,"Pre-emerge Herbicidal Activity, phytotoxicity rating (0-100), ECHCG",[1]; 250 g ai/ha,100
same,"Pre-emerge Herbicidal Activity, phytotoxicity rating (0-100), CASOB",[2]; 63 g ai/ha,100
same,"Pre-emerge Herbicidal Activity, phytotoxicity rating (0-100), CASOB",[2]; 250 g ai/ha,100
same,"Pre-emerge Herbicidal Activity, phytotoxicity rating (0-100), IPOHE",[3]; 63 g ai/ha,85
same,"Pre-emerge Herbicidal Activity, phytotoxicity rating (0-100), IPOHE",[3]; 250 g ai/ha,100
same,"Pre-emerge Herbicidal Activity, phytotoxicity rating (0-100), AMBEL",[4]; 63 g ai/ha,100
same,"Pre-emerge Herbicidal Activity, phytotoxicity rating (0-100), AMBEL",[4]; 250 g ai/ha,100
same,"Pre-emerge Herbicidal Activity, phytotoxicity rating (0-100), SORHA",[5]; 63 g ai/ha,90
same,"Pre-emerge Herbicidal Activity, phytotoxicity rating (0-100), SORHA",[5]; 250 g ai/ha,100
same,"Pre-emerge Herbicidal Activity, phytotoxicity rating (0-100), ABUTH",[6]; 63 g ai/ha,100
same,"Pre-emerge Herbicidal Activity, phytotoxicity rating (0-100), ABUTH",[6]; 250 g ai/ha,100
same,"Pre-emerge Herbicidal Activity, phytotoxicity rating (0-100), DIGSA",[7]; 63 g ai/ha,100
same,"Pre-emerge Herbicidal Activity, phytotoxicity rating (0-100), DIGSA",[7]; 250 g ai/ha,100
same,"Pre-emerge Herbicidal Activity, phytotoxicity rating (0-100), SETVI",[8]; 63 g ai/ha,100
same,"Pre-emerge Herbicidal Activity, phytotoxicity rating (0-100), SETVI",[8]; 250 g ai/ha,100
same,"Pre-emerge Herbicidal Activity, phytotoxicity rating (0-100), CHEAL",[9]; 63 g ai/ha,100
same,"Pre-emerge Herbicidal Activity, phytotoxicity rating (0-100), CHEAL",[9]; 250 g ai/ha,100
same,"Pre-emerge phytotoxicity rating (0-100), crop damage, RICE",[10]; 63 g ai/ha,70
same,"Pre-emerge phytotoxicity rating (0-100), crop damage, RICE",[10]; 250 g ai/ha,90
same,"Pre-emerge phytotoxicity rating (0-100), crop damage, CORN",[11]; 63 g ai/ha,90
same,"Pre-emerge phytotoxicity rating (0-100), crop damage, CORN",[11]; 250 g ai/ha,98
same,"Pre-emerge Herbicidal Activity, phytotoxicity rating (0-100), AMARE",[12]; 63 g ai/ha,100
same,"Pre-emerge Herbicidal Activity, phytotoxicity rating (0-100), AMARE",[12]; 250 g ai/ha,100
same,phytotoxicity rating ECHCG,[13]; 63 g ai/ha,20
same,phytotoxicity rating ECHCG,[13]; 250 g ai/ha,90
same,phytotoxicity rating CASOB,[14]; 63 g ai/ha,90
same,phytotoxicity rating CASOB,[14]; 250 g ai/ha,100
same,phytotoxicity rating IPOHE,[15]; 63 g ai/ha,100
same,phytotoxicity rating IPOHE,[15]; 250 g ai/ha,100
same,phytotoxicity rating AMARE,[16]; 63 g ai/ha,100
same,phytotoxicity rating AMARE,[16]; 250 g ai/ha,100
same,phytotoxicity rating AMBEL,[17]; 63 g ai/ha,90
same,phytotoxicity rating AMBEL,[17]; 250 g ai/ha,100
same,phytotoxicity rating SORHA,[18]; 63 g ai/ha,50
same,phytotoxicity rating SORHA,[18]; 250 g ai/ha,80
same,phytotoxicity rating ABUTH,[19]; 63 g ai/ha,100
same,phytotoxicity rating ABUTH,[19]; 250 g ai/ha,100
same,phytotoxicity rating DIGSA,[20]; 63 g ai/ha,10
same,phytotoxicity rating DIGSA,[20]; 250 g ai/ha,20
same,phytotoxicity rating SETVI,[21]; 63 g ai/ha,10
same,phytotoxicity rating SETVI,[21]; 250 g ai/ha,50
same,phytotoxicity rating CHEAL,[22]; 63 g ai/ha,100
same,phytotoxicity rating CHEAL,[22]; 250 g ai/ha,100
same,phytotoxicity rating RICE,[23]; 63 g ai/ha,90
same,phytotoxicity rating RICE,[23]; 250 g ai/ha,95
same,phytotoxicity rating CORN,[24]; 63 g ai/ha,80
same,phytotoxicity rating CORN,[24]; 250 g ai/ha,80
